Assay results taken from patent US9770195B2, “Automated scratch detection system and signal processing algorithm for the study of pruritus in animals” (The Regents of the University of California, priority 2012, dated 2017).
“Also recorded” adds a separate entry of the source. Read-outs that look alike come from different tables or passages of the source.

Tests used:
[1] = system: C57Bl/6 mice; experiment: Pruritogen-evoked hind paw scratching counted by the paw motion detector (PMD) in mice; format: in vivo; conditions: mouse; for scratching behavior evoked by the pruritogen: injection to dorsolateral neck, ipsilateral paw, 60 min; for dose response of scratching: histamine 0.111-11.1 g/mL, chloroquine 0.1-2 mg/mL, 48/80 0.125-0.5 mg/mL
Source text: Data acquisition is then initiated. […] The PMD detects the movement of a non-ferrous metal band placed around one hind paw of the rodent (for the mouse the band weight=0.1 g while for the rat the band weight=0.5 g). There are two distinct bands one for the rat and one for the mouse (see the band in Yaksh et al., 2001). The testing apparatus consists of cylindrical chambers (mouse: 8.5 cm diameter/22.5 cm tall; rat: 15 cm diameter/30 cm tall). Under each cylinder is a pair of circular concentric electromagnetic coils, which serve respectively as antennas for transmission and reception. […] The transmitter coil assembly is constructed to emit a 5-8 mW, 6-8 kHz, sinusoidal electromagnetic field (Blue Max 800 Precision scan search coil White's Electronics, Inc., OR). The detection principal is that Eddy currents created by the movements of the ferrous and nonferrous metals perturb the EM field. Such perturbations produce an output waveform and are subsequently detected (Yaksh et al., 2001). The analog signal from the sensing coil assembly is fed into a standard National Instruments based signal acquisition A-D converter system ([…] or PCI-MI0-16Xe-10 National Instruments Corp.) driven into a standard LabView based software (Lab view v.5.1 National Instruments Corporation, Austin, Tex.). The signal is filtered, amplified, and digitized (sampling rate of 1000 Hz, 12-bit resolution). This signal (conditioned signal in FIG. 2) is then entered and passed through a two component-triggering algorithm configured in the Lab view program. In the first phase, the processed signal is sent through an algorithm to establish a scratch movement trigger. In this phase, the processed signal is subjected to a “zero-crossing interval-peak height” analysis based on the signal amplitude in a sliding time window (see Yaksh et al., 2001). The range of voltages (1-0.01 V) over a moving 128-ms interval is configured to produce a continuous output waveform. […] The signal is then smoothed by using a non-weighted moving average filter. The smoothed range waveform is examined in real time by a peak-detection algorithm set to pick out spikes of >500 ms and amplitudes of >0.3 V. Each peak provided a trigger signal, which is represented by a red line on the automated system's display, see FIG. 3. The signal is then processed through a second level algorithm to define bursting. A high frequency scratching burst, which we will now call a microburst, is defined as multiple trigger signals occurring within a specified moving window time frame (e.g. 2 trigger signals within a 1.15 s time frame) without double counting trigger signals. […] Paw movement events meeting the criteria of a scratch microburst are captured and summed at 1-min increments by default (and can be summed from 1 s to 60 min increments). Summed data are stored in Microsoft Excel compatible spreadsheets.

[2] = system: Holtzman rats; experiment: SQ 48/80-evoked homolateral scratching in the rat (PMD, Example 2); format: in vivo; conditions: diphenhydramine 1 mg/kg IP with SQ 48/80
Source text: Data acquisition is then initiated.
The PMD detects the movement of a non-ferrous metal band placed around one hind paw of the rodent (for the mouse the band weight=0.1 g while for the rat the band weight=0.5 g). There are two distinct bands one for the rat and one for the mouse (see the band in Yaksh et al., 2001). The testing apparatus consists of cylindrical chambers (mouse: 8.5 cm diameter/22.5 cm tall; rat: 15 cm diameter/30 cm tall). Under each cylinder is a pair of circular concentric electromagnetic coils, which serve respectively as antennas for transmission and reception. Outer coil diameters for the mouse and rat are 12 cm and 20 cm, respectively. The transmitter coil assembly is constructed to emit a 5-8 mW, 6-8 kHz, sinusoidal electromagnetic field (Blue Max 800 Precision scan search coil White's Electronics, Inc., OR). The detection principal is that Eddy currents created by the movements of the ferrous and nonferrous metals perturb the EM field. Such perturbations produce an output waveform and are subsequently detected (Yaksh et al., 2001).

[3] = system: C57Bl/6 mice; conditions: mouse; for effect on chloroquine (1 mg/mL) evoked scratching: diphenhydramine 1 mg/kg IP

`CCN(CC)CCCC(C)Nc1ccnc2cc(Cl)ccc12` (stereo not drawn) [chloroquine] was tested, and the “cumulative macroburst counts, 48/80 vs chloroquine” value ([1]; 1 hour, SQ 48/80 0.5 mg/mL vs chloroquine 1 mg/mL, N=5, p<0.001) was “significantly different”, the “scratching behavior evoked by the pruritogen” value [1] was “vigorous scratching; also recorded: significant scratching incidence” and the average macrobursts ([1]; over 1 hour after SQ 48/80 0.5 mg/mL or chloroquine 1 mg/mL, N=5, FFT transformed) was 8.4. The “dose response of scratching” value [1] was “inverse u shape dose response curve” and the “dose response of scratching” value ([1]; listed as Chloroquine) was “inverse U shaped dose response curve; also recorded: inverse u-shaped dose response curve”.
With `CN(C)CCOC(c1ccccc1)c1ccccc1` [diphenhydramine, Diphenhydramine] the “effect on 48/80-evoked scratching” value [2] was “significant reduction in the observed magnitude of scratching”, the “effect on scratching produced by 48/80” value ([3]; diphenhydramine 0.1 mg/kg IP, 30 min pretreatment, SQ 48/80 0.5 mg/mL) was “complete reversal of scratching” and the “effect on chloroquine (1 mg/mL) evoked scratching” value ([3]; 30 min pretreatment) was “lower mean microburst count than those treated with chloroquine alone, but this was not statistically significant”. For the same compound, the “effect on chloroquine (1 mg/mL) evoked scratching” value ([3]; 30 min pretreatment, listed as Diphenhydramine) was “no statistically significant effect”, the “effect on SQ histamine-evoked scratching” value ([3]; diphenhydramine, dose not stated) was “reversed” and the “effect on scratching produced by 48/80” value ([3]; higher doses of diphenhydramine (0.3, 1 mg/kg IP)) was “suppression of behavior as compared to saline treated animals”. For the same compound, the “effect on 48/80-evoked scratching, across doses” value ([3]; increasing doses of IP diphenhydramine) was “attenuated in an equally dose dependent fashion; also recorded: reversed”.
In the case of `Cl.Cl.NCCc1c[nH]cn1` [histamine, Histamine dihydrochloride], the “scratching behavior evoked by the pruritogen” value [1] is reported as “vigorous scratching” and the “dose response of scratching” value ([1]; dihydrochloride) is reported as “robust dose dependent scratching”.
With `CCN(CC)CC(=O)Nc1c(C)cccc1C` [lidocaine] the “effect on histamine-evoked scratching” value ([3]; SQ lidocaine 2.5% injected into the site 5 min prior to histamine) was “blocked the scratching behavior”.
